Data set [1] has as its system cytochrome P450 oxidase enzyme system. Conditions: metabolized in the liver; cited from earlier work.
Data set [2] concerns subjects with existing scars, incision after surgical removal. The experiment in a line: Caffeine cream for scar reduction or prevention after surgical excision (Example 3). Format: in vivo, human. Conditions: topical cream; both subjects felt caffeine effects. The text has this:
Two subjects with existing scars were chosen for the study.
Subject #1 presented with a skin growth on the left mid cheek.
Subject #2 presented with an older mid-forehead scar. […] The subject underwent a third revision of the scar.

For data set [3] the following is noted: cited from earlier work.
The subject of the next data set is wound. The experiment in a line: Wound healing with application of resveratrol. Format: in vivo.

For `Cn1c(=O)[nH]c2ncn(C)c2c1=O` [Paraxanthine, 1,7-dimethyl-3H-purine-2,6-dione], the “share of caffeine metabolites” value in data set [1] was 84%.
Regarding `Cn1c(=O)c2c(ncn2C)n(C)c1=O` [caffeine, 1,3,7-trimethylpurine-2,6-dione], the “uptake from application site and distribution” value in data set [2] was “rapidly taken from the application site and distributed throughout the body”.
Consider `Oc1ccc(/C=C/c2cc(O)cc(O)c2)cc1` [resveratrol, trans-3,4′,5-trihydroxystilbene], for which the solubility in water result in data set [3] is “very low solubility”. Moreover, in the data set with wound, the resulting scar is recorded as “attenuated scar” and the time to epithelialization is at most 24 h.
Regarding `Cn1c(=O)c2[nH]cnc2n(C)c1=O` [theophylline, 1,3-dimethyl-7H-purine-2,6-dione, reference compound], the “share of caffeine metabolites” value in data set [1] was 4%.

The values are drawn from patent US20180214388A1, “COMPOSITION AND METHOD FOR REDUCING SCARRING” (priority 2015, published 2018).
